Results from PubChem BioAssay (NCI).
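Tested at 5 concentrations; 48 h exposure; 96-well plates; endpoints linearly interpolated, else capped at highest concentration. At the GI50, growth is halved. TGI denotes the concentration required for complete inhibition of growth.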

Experiments:
Assay in all cases: NCI-60 cell line screen, 48 h
EKVX NSCLC = system: EKVX NSCLC
NCI/ADR-RES ovarian = system: NCI/ADR-RES ovarian
NCI-H522 lung = system: NCI-H522 lung
HL-60(TB) leukemia = system: HL-60(TB) leukemia
HOP-92 NSCLC = system: HOP-92 NSCLC
SF-539 CNS = system: SF-539 CNS
SNB-19 CNS = system: SNB-19 CNS
OVCAR-8 ovarian = system: OVCAR-8 ovarian
HCC-2998 colon = system: HCC-2998 colon
UACC-62 melanoma = system: UACC-62 melanoma

Row | Compound | GI50 (EKVX NSCLC) [µM] | TGI (EKVX NSCLC) [µM] | GI50 (NCI/ADR-RES ovarian) [µM] | TGI (NCI/ADR-RES ovarian) [µM] | GI50 (NCI-H522 lung) [µM] | TGI (NCI-H522 lung) [µM] | GI50 (HL-60(TB) leukemia) [µM] | TGI (HL-60(TB) leukemia) [µM] | GI50 (HOP-92 NSCLC) [µM] | TGI (HOP-92 NSCLC) [µM] | GI50 (SF-539 CNS) [µM] | TGI (SF-539 CNS) [µM] | GI50 (SNB-19 CNS) [µM] | TGI (SNB-19 CNS) [µM] | GI50 (OVCAR-8 ovarian) [µM] | TGI (OVCAR-8 ovarian) [µM] | GI50 (HCC-2998 colon) [µM] | TGI (HCC-2998 colon) [µM] | GI50 (UACC-62 melanoma) [µM] | TGI (UACC-62 melanoma) [µM]
1 | Cc1cc2nc(C(Cl)Cl)nc(-c3ccccc3)n2n1 | 3.72 | 20.3 | 3.78 | 29.9 | 4.27 | > 100 | 2.38 | 6.35 | 2.43 | 12.2 | 3.94 | 25 | 4.04 | 28 | 5.06 | > 100 | 1.79 | 3.49 | 8.55 | 56
2 | Cc1ccc2c(c1)C=CC(C#N)N2C(=O)Oc1ccccc1 (stereo unspecified) | – | 43 | – | 50.6 | – | 41 | – | 50.5 | – | 64.7 | – | > 100 | – | > 100 | – | 31.1 | – | 31.2 | – | > 100
3 | CC[CH2][Sn]([CH2]CC)([O]C(=O)Cc1ccc(F)cc1)[O][Sn]([CH2]CC)([CH2]CC)[O]C(=O)Cc1ccc(F)cc1 | 0.569 | 1.99 | 0.574 | 1.93 | – | 0.0322 | 0.0888 | – | 0.174 | 0.522 | 0.274 | 0.769 | 0.443 | 1.35 | 0.278 | 1.41 | 0.439 | 1.7 | 0.172 | 0.524
4 | Clc1ccc2c(NCCNc3nc(N4CCCC4)nc4ccccc34)ccnc2c1 | 2.08 | 7.65 | 2.78 | 11.1 | 1.36 | 3.1 | 0.704 | 1.54 | 1.23 | 2.66 | 1.76 | 3.25 | 1.6 | 5.62 | 1.65 | 4.12 | 1.78 | 4.37 | 1.8 | 3.5
5 | O=C(NCCCCCCNC(=O)OCc1ccc2c(Cl)cc(Cl)c(O)c2n1)OCc1ccc2c(Cl)cc(Cl)c(O)c2n1 | 1.51 | 3.08 | 0.518 | 6.58 | 0.46 | 2.1 | 0.771 | 4.29 | 0.515 | 2.17 | 0.468 | 1.63 | 1.49 | 2.91 | 0.677 | 2.62 | 1.68 | 3.22 | 1.06 | 2.28
6 | Nc1nc(-c2cccs2)cs1 | – | > 100 | – | > 100 | – | > 100 | – | > 100 | – | > 100 | – | > 100 | – | > 100 | – | > 100 | – | > 100 | – | > 100
7 | Oc1c(I)cc(I)cc1CN(Cc1ccccn1)Cc1ccccn1 | 0.987 | 17.2 | 1.13 | 6.46 | 2.04 | 28 | 1.3 | 7.03 | 1.18 | 9.04 | 0.855 | 10 | 0.86 | > 64.2 | 0.547 | 23.2 | 4.18 | 34.7 | 0.499 | 5.73
8 | CC#CC(=O)N1CC[C@@H](n2c(=O)n(-c3ccc(Oc4ccccc4)cc3)c3c(N)ncnc32)C1 | 19.7 | > 100 | 24.2 | > 100 | 10.8 | 92.7 | 23.5 | 77.4 | 16.4 | 68.1 | 25 | > 100 | 37.4 | > 100 | 40.6 | > 100 | 42.5 | > 100 | 14.8 | 42.8
9 | Nc1nc(-c2ccc(Cl)cc2)cc(-c2ccccc2)c1-c1nc2ccccc2o1 | 12.4 | 28 | 5.46 | > 100 | 9.5 | 33.9 | 3.47 | 9.23 | 2.19 | 6.18 | 16.1 | 32.2 | 18.6 | 44.6 | 14.1 | 54.1 | 8.39 | 34 | 15.8 | 30.7
10 | COc1ccc2nc(-c3cc4c([nH]c5ccccc54)c(-c4ccc(F)c(F)c4)n3)[nH]c2c1 | – | – | 4.22 | 64.8 | 10 | 33.8 | 2.78 | 7.12 | 5.96 | 29.5 | 15.5 | 34.6 | 8.57 | > 100 | 3.08 | 18.1 | 8.96 | 25.3 | 2.76 | 10.2
